Source: the supplement of paper PMC10702517
± gives the standard deviation.

Test: chemical recovery from spiked human plasma; higher = better extraction
Settings: pooled human plasma
[1] = extraction method: PES+SPE (3 d PDMS equilibration then HLB SPE)
[2] = extraction method: SPE only (HLB 96-well)
[3] = extraction method: solvent precipitation (ACN + hexane)
[4] = extraction method: SPE only (HLB 96-well), PES comparison experiment

Row | SMILES | chemical recovery [1] [%] | chemical recovery [2] [%] | chemical recovery [3] [%] | chemical recovery [4] [%]
1 | O=C(c1ccccc1)c1ccc(O)cc1 [4-Hydroxybenzophenone] | 65.9 ± 5.4 | 53 ± 4.1 | 77.7 ± 3.6 | –
2 | c1ccc2c(c1)Nc1ccccc1S2 [Phenothiazine] | – | – | 41.2 ± 4.4 | –
3 | Cc1c(Br)c(Br)c(C)c(Br)c1Br [2,3,5,6-Tetrabromo-p-xylene] | 83.9 ± 17 | 17 ± 6.2 | 103 ± 16 | –
4 | CN(C)CC(c1ccc(O)cc1)C1(O)CCCCC1 (stereo unspecified) [Venlafaxine-O-desmethyl] | 31.3 ± 3.1 | 31.2 ± 2.6 | – | –
5 | Cn1cnc2c1c(=O)n(CCCC(=O)O)c(=O)n2C [1-(3-carboxypropyl)-3,7-dimethylxanthine] | 72.3 ± 13 | 54.3 ± 10 | 59.8 ± 6.9 | –
6 | CCCCOC(=O)c1ccc(O)cc1 [Butylparaben] | 51.3 ± 3.1 | 37.5 ± 1.3 | 64.9 ± 1.9 | –
7 | CCCCOCCOCCOCCO [Triethylene-Glycol-Monobutyl-Ether] | 165 ± 16 | 109 ± 30 | – | –
8 | CNC(=O)c1cc(Cl)cc(C)c1NC(=O)c1cc(Br)nn1-c1ncccc1Cl [Chlorantraniliprole] | 66.7 ± 5.2 | 49.5 ± 2.3 | 75.5 ± 1.2 | –
9 | O=C(O)C(F)(F)C(F)(F)C(F)(F)C(F)(F)F [Perfluoropentanoic-acid] | 32.1 ± 3.4 | 31.1 ± 3.3 | 78.1 ± 8.5 | –
10 | CCC(Cc1ccccc1)(C(=O)c1ccc(N2CCOCC2)cc1)N(C)C (stereo unspecified) [Irgacure-369] | 19.4 ± 3.7 | 36.8 ± 1.1 | 77.2 ± 5.5 | –
11 | Cc1cccc2cc3ccccc3cc12 [1-Methylanthracene] | – | 4.65 ± 1.1 | – | –
12 | COc1ccc(C(=O)CC(=O)c2ccc(C(C)(C)C)cc2)cc1 [Avobenzone] | – | 8.77 ± 0.79 | – | –
13 | CCCCCCCCOc1ccc(-c2nc(-c3ccc(C)cc3C)nc(-c3ccc(C)cc3C)n2)c(O)c1 [UV-1164] | – | 0.287 ± 0.085 | – | –
14 | O=C(c1ccc(O)cc1O)c1ccc(O)cc1O [2,2',4,4'-Tetrahydroxybenzophenone] | 50 ± 4.4 | 51.4 ± 4.7 | – | –
15 | CCCCCCCC[N+](C)(C)C [Trimethyloctylammonium] | 38.7 ± 3.8 | 35 ± 2.5 | 72.1 ± 3 | 45.7 ± 6.1
16 | O=C1CN(/N=C/c2ccc([N+](=O)[O-])o2)C(=O)N1 [Nitrofurantoin] | – | – | – | 54.8 ± 8.6
17 | Cc1ccc(-c2c(Cl)nc(C#N)n2S(=O)(=O)N(C)C)cc1 [Cyazofamid] | – | 41 ± 2 | – | –
18 | Cc1ccc2cc(C)ccc2c1 [2,6-Dimethylnaphthalene] | – | 0.083 ± 0.072 | – | –
19 | COc1cc([N+](=O)[O-])ccc1O [4-Nitroguaiacol] | 45.3 ± 6.9 | 39.5 ± 6.2 | 82.7 ± 14 | –
20 | CNC(=O)Oc1cc(C)c(SC)c(C)c1 [Methiocarb] | 0.0787 ± 0.035 | 32.8 ± 0.78 | – | 0.163 ± 0.33
21 | Cc1ccc(N)cc1Cl [3-Chloro-4-methylaniline] | 56.7 ± 3.6 | 45.3 ± 2.8 | 76.7 ± 4.1 | –
22 | CC1COCc2cc3c(cc21)C(C)(C)C(C)C3(C)C (stereo unspecified) [Galaxolide] | 39.1 ± 9.8 | 13.7 ± 2.7 | 99.6 ± 18 | –
23 | CC(C)NCC(O)COc1cccc2[nH]ccc12 (stereo unspecified) [Pindolol] | 42.3 ± 1.6 | – | 76 ± 2.5 | –
24 | COc1ccccc1OCC(O)COC(N)=O (stereo unspecified) [Methocarbamol] | 40.6 ± 2.7 | 36.1 ± 3.5 | 70.6 ± 2 | –

Row | SMILES | chemical recovery [1] [%] | chemical recovery [2] [%] | chemical recovery [3] [%] | chemical recovery [4] [%]
25 | CN/C(=N/CC1CCOC1)N[N+](=O)[O-] (stereo unspecified) [Dinotefuran] | – | 27.4 ± 2.9 | 76.3 ± 3.7 | –
26 | c1ccc2c(c1)[nH]c1ccncc12 [5-Carboline] | 25.1 ± 5 | 34.1 ± 2.7 | 72.4 ± 3.9 | 31.2 ± 3.7
27 | CN(C)S(=O)(=O)c1ccc(N)cc1 [4-Amino-N,N-dimethylbenzenesulfonamide] | 69.6 ± 6.2 | 63.7 ± 4.4 | – | –
28 | Cc1ncc([N+](=O)[O-])n1CCO [Metronidazole] | – | 21.2 ± 3.4 | 70.6 ± 4.1 | –
29 | CC(C)(c1ccccc1)c1ccc(O)cc1 [4-Cumylphenol] | – | 30.6 ± 7.2 | 46.6 ± 4.5 | –
30 | Cn1c(N)nc2c3cccnc3ccc21 [2-Amino-3-methyl-imidazo[4,5-f]quinoline-(IQ)] | 27 ± 5.9 | 13.8 ± 2.6 | 73.4 ± 2.7 | –
31 | c1ccc2[nH]c(-c3cscn3)nc2c1 [Thiabendazole] | 40.6 ± 4.9 | 41.3 ± 3 | 80.4 ± 4.5 | 49.3 ± 3.5
32 | COc1ccc2c(c1)[nH]c1c(C)nccc12 [Harmine] | 37.8 ± 5.3 | 37.3 ± 2.9 | – | 48.6 ± 4.2
33 | CC(C)C1C2CCC1c1c(NC(=O)c3cn(C)nc3C(F)F)cccc12 (stereo unspecified) [Isopyrazam] | 56.7 ± 6.3 | 42.1 ± 4.9 | 72.1 ± 4.6 | –
34 | C[C@H](CCC(=O)O)[C@H]1CC[C@H]2[C@@H]3[C@H](O)C[C@@H]4C[C@H](O)CC[C@]4(C)[C@H]3C[C@H](O)[C@]12C [Cholic-acid] | – | 48.4 ± 3.9 | – | –
35 | Oc1c(Cl)cc(-c2ccc(Cl)cc2)cc1Cl [4-Hydroxy-3,4',5-trichlorobiphenyl] | 46.3 ± 7.3 | 36.1 ± 5.9 | 27.9 ± 1.8 | –
36 | CC(Oc1ccc(Oc2nc3ccc(Cl)cc3o2)cc1)C(=O)O (stereo unspecified) [Fenoxaprop-P] | 42.2 ± 5 | 26.7 ± 2.6 | – | –
37 | O=P(O)(O)C(F)(F)C(F)(F)C(F)(F)C(F)(F)C(F)(F)C(F)(F)F [Perfluorohexylphosphonic-acid] | 37.5 ± 6 | 31.2 ± 4.6 | 26.7 ± 9.3 | –
38 | O=C(O)COc1ccc(Cl)cc1Cl [2,4-Dichlorophenoxyacetic acid] | – | – | 73.2 ± 6.1 | 56.3 ± 5.5
39 | N[C@@H](Cc1cc(I)c(Oc2cc(I)c(O)c(I)c2)c(I)c1)C(=O)O [L-Thyroxine] | 50.6 ± 7.1 | 36.5 ± 3.8 | 30.8 ± 3.3 | –
40 | COP(=O)(OC)OC [Trimethylphosphate] | – | 3.11 ± 2.1 | 0.912 ± 1.3 | –
41 | CC(C)C[C@H](CN)CC(=O)O [Pregabalin] | – | 8.64 ± 5.9 | 66 ± 7.2 | –
42 | CNC1(c2ccccc2Cl)CCCCC1=O (stereo unspecified) [Ketamine] | 10.8 ± 4.5 | 32.2 ± 2.1 | 59 ± 2.7 | 45.4 ± 6.8
43 | Cc1cccc(C)c1NC(=O)CS(=O)(=O)O | 21.8 ± 8.2 | 5.38 ± 9.3 | – | 38.3 ± 6.6
44 | O=C(c1ccccc1)C1CCCCC1 [Cyclohexylphenylketone] | – | 9.88 ± 8.6 | – | –
45 | Cc1cc(-c2ccc(N)c(C)c2)ccc1N [3,3'-Dimethylbenzidine] | – | 37.1 ± 6.7 | 61.7 ± 6.9 | 20.3 ± 2.9
46 | O=C1Cc2ccccc2N1 [2-Oxindole] | – | – | 39.1 ± 5.5 | –
47 | CCCCCCCCCCOS(=O)(=O)O [Decylsulfate] | – | 18.8 ± 4.3 | 50.4 ± 1.6 | 30.8 ± 9
48 | CC(=O)NCCNC(C)=O [Diacetylethylenediamine] | 0.534 ± 0.055 | 0.155 ± 0.14 | – | –

Row | SMILES | chemical recovery [1] [%] | chemical recovery [2] [%] | chemical recovery [3] [%] | chemical recovery [4] [%]
49 | OC[C@@H](O)[C@@H](O)[C@H](O)[C@@H](O)CO [D-Glucitol] | – | 3.85 ± 1.9 | – | –
50 | C=CCC1(C(C)CCC)C(=O)NC(=O)NC1=O (stereo unspecified) [Secobarbital] | 53.8 ± 5 | 36.7 ± 1.2 | 72.8 ± 5.8 | 61.1 ± 8.4
51 | CCCNC(=O)NS(=O)(=O)c1ccc(Cl)cc1 [Chlorpropamide] | 55.3 ± 5 | 47.5 ± 3.5 | 76.8 ± 4.6 | –
52 | c1ccc2c(c1)Cc1ccccc1-2 [Fluorene] | – | – | – | 11 ± 2.6
53 | Oc1cc(Cl)ccc1Oc1ccc(Cl)cc1 [Diclosan] | – | 32.1 ± 2.6 | 41.7 ± 3.2 | –
54 | c1ccc2c(c1)ccc1sc3ccccc3c12 [Benzo[b]naphtho(1,2-d)thiophene] | – | 0.745 ± 0.2 | 20.4 ± 2.6 | –
55 | C/C(=C\c1ccccc1)c1ccccc1 [trans-a-Methylstilben] | – | 14.3 ± 7.5 | – | –
56 | O=C(Nc1ccccc1)N(Cc1ccc(Cl)cc1)C1CCCC1 [Pencycuron] | 54 ± 6.3 | 28.4 ± 3.3 | – | –
57 | O=C(O)C(F)(OC(F)(F)C(F)(F)C(F)(F)F)C(F)(F)F (stereo unspecified) [HFPO-DA] | – | 30.7 ± 3 | 67.4 ± 3.1 | –
58 | NC(=O)N1c2ccccc2CC(=O)c2ccccc21 [Oxcarbazepine] | – | – | 0.126 ± 0.22 | –
59 | COCCOCCO [Diethyleneglycolmonomethylether] | – | 1.78 ± 2.6 | – | –
60 | COCCc1ccc(OCC(O)CNC(C)C)cc1 (stereo unspecified) [Metoprolol] | 21.9 ± 2.5 | 36.2 ± 2.6 | 75.2 ± 2.3 | 44 ± 5.4
61 | CC(C)c1c(C(=O)Nc2ccccc2)c(-c2ccccc2)c(-c2ccc(F)cc2)n1CC[C@@H](O)C[C@@H](O)CC(=O)O [Atorvastatin] | 32.2 ± 9.6 | 30.1 ± 3.9 | 61.7 ± 3 | 41.1 ± 8.4
62 | CC(C)c1cc(C(C)(C)c2ccc(O)c(C(C)C)c2)ccc1O [Bisphenol-G] | – | 8.379 ± 0.058 | 39.5 ± 3.7 | –
63 | N=C1NCCN1Cc1ccc(Cl)nc1 [Imidacloprid-guanidine] | – | 26.9 ± 4.3 | 73 ± 3 | –
64 | O=c1n(CC(Br)CBr)c(=O)n(CC(Br)CBr)c(=O)n1CC(Br)CBr (stereo unspecified) [Tris(2,3-dibromopropyl)isocyanurate] | – | 3.25 ± 5.6 | – | –
65 | CC1(C(=O)Nc2ccc(O)c(Cl)c2Cl)CCCCC1 [Fenhexamid] | – | – | 66.2 ± 1.5 | –
66 | CCCCC(CC)COP(=O)(OCC(CC)CCCC)OCC(CC)CCCC (stereo unspecified) [Tris(2-ethylhexl)phosphate] | – | 6.76 ± 2.9 | 107 ± 4.1 | 4.16 ± 1.6
67 | Cc1nccn1CC1CCc2c(c3ccccc3n2C)C1=O (stereo unspecified) [Ondansetron] | 15.3 ± 3.4 | 32.6 ± 2 | 73.2 ± 2.9 | 45.7 ± 7.4
68 | CCNc1nc(NC(C)(C)C)[nH]c(=O)n1 [Terbuthylazine-2-hydroxy] | 41.4 ± 3.8 | 35.5 ± 3.4 | 76.7 ± 3.9 | 43.6 ± 5.5
69 | O=C(c1ccccc1)c1ccc(O)cc1O [2,4-Dihydroxybenzophenone] | 53.8 ± 3.7 | 42.1 ± 2.9 | 59.2 ± 3.6 | –
70 | CCN(CC)C(=O)c1cccc(C(=O)O)c1 [DEET-carboxylic-acid] | 42.3 ± 4.4 | 43.9 ± 4.5 | 68.1 ± 5.1 | –
71 | CC[C@@H](C(N)=O)N1CCCC1=O [Levetiracetam] | – | 21.4 ± 8.7 | 78 ± 3.8 | –
72 | c1ccc2cc(-c3cc4ccccc4s3)ccc2c1 [2-(2-Naphthalenyl)benzothiophene] | 59.8 ± 2.4 | 0.402 ± 0.15 | 23.4 ± 1 | –
